The results in this text go back to patent US20200171162A1, “E-POLY-L-LYSINE DERIVATIVES HAVING FUNCTIONAL GROUP FOR CLICK CHEMISTRY, METHOD FOR PRODUCING THE SAME, AND USE THEREOF” (Fukui Prefectural University, priority 2017, published 2020).

One series in a line: physchem. The method, then:
A commercial DBCO-PEG4-5/6-FAM represented by formula (12) (0.5 μmol) and a 9- to 18-mer ε-PL-PEG-azide represented by the general formula (10) (wherein n is an integer of 9 to 18) (1.0 μmol) were dissolved in 80% dimethylsulfoxide (hereinafter referred to as DMSO). The mixture was subjected to a click chemistry reaction while stirred at 30° C. for 24 hours. The reaction mixture was analyzed by ESI-TOF-MS/HPLC as described in Example 1.

For the next series, the system named is HeLa cells. Nature of the series: Biomembrane permeability test using HeLa cells (fluorescence intensity of cell extract). The class given is cell-based. Particulars: statement for the unmodified dye.
Series [1] concerns Dox-resistant K562 cells (K562/ADR). Kind of series: Cytotoxicity (anticancer activity), MTT assay. Particulars: Homo sapiens, 48 hours. The class given is cell-based. The method, then:
(§1) The culture of K562 cells and K562/ADR cells was performed in an RPMI1640 medium containing 10% fetal bovine serum (FBS) in an atmosphere of 5% carbon dioxide at 37° C. The cells were suspended at 1×10^5 cells/mL in the medium, and 100 μL (1×10^4 cells) of the cell suspension was seeded on each well of 96-well plates and cultured for 24 hours. […] MTT assay was performed to determine cytotoxicity based on viable cell count.

Series [2] deals with human chronic myelogenous leukemia K562 cells. Kind of series: Cytotoxicity (anticancer activity), MTT assay. Particulars: 48 hours. The class given is cell-based. Here is the method:
as §1

Description for HeLa cells: The culture of HeLa cells was performed in a Dulbecco's modified Eagle's medium (DMEM) containing 10% fetal bovine serum (FBS) in an atmosphere of 5% carbon dioxide at 37° C. Under such culture conditions, the cells were cultured in 12-well plates until grown to 70 to 80% confluency. The cells were washed twice with DMEM without FBS (DMEM w/o FBS). […] Incubation was performed at 4° C. for 30 minutes. The cells were washed successively with phosphate buffered saline (PBS) twice, with PBS alone or PBS containing heparin (100 μg/mL), and with PBS twice. To the cells, 300 μL of 100 mM Tris-HCl buffer solution (pH 8.0) containing 1% Triton X-100 was added for extraction of the compound taken up by the cells. After removing the insoluble fraction by centrifugation, fluorescence intensity was measured.
The culture of HeLa cells was performed in a Dulbecco's modified Eagle's medium (DMEM) containing 10% fetal bovine serum (FBS) in an atmosphere of 5% carbon dioxide at 370° C. Under such culture conditions, the cells were cultured in 12-well plates until grown to 70 to 80% confluency. The cells were washed twice with DMEM without FBS (DMEM w/o FBS). […] Incubation was performed at 4° C. for 30 minutes. […] After removing the insoluble fraction by centrifugation, fluorescence intensity was measured.

Regarding `O=C(CCOCCOCCOCCOCCNC(=O)c1ccc(-c2c3ccc(=O)cc-3oc3cc(O)ccc23)c(C(=O)O)c1)NCCC(=O)N1Cc2ccccc2C#Cc2ccccc21` [DBCO-PEG4-5/6-FAM], the water solubility entry in the series “physchem” is “poorly water-soluble”. For the same compound, the biomembrane permeability result in the series with HeLa cells is “no biomembrane permeability”.

In turn, `C[C@@H]1[C@H](O)[C@@H](C)/C=C/C=C/C=C/C=C/C=C/C=C/C=C/[C@H](O[C@@H]2O[C@H](C)[C@@H](O)[C@H](N)[C@@H]2O)C[C@@H]2O[C@](O)(C[C@@H](O)C[C@@H](O)[C@H](O)CC[C@@H](O)C[C@@H](O)CC(=O)O[C@H]1C)C[C@H](O)[C@H]2C(=O)O` [AmpB, amphotericin B] displayed a solubility in the series “physchem” (water) below 1080 µM.

`COc1cccc2c1C(=O)c1c(O)c3c(c(O)c1C2=O)C[C@@](O)(C(=O)CO)C[C@@H]3O[C@H]1C[C@H](N)[C@H](O)[C@H](C)O1` [Dox, doxorubicin]: the half-inhibitory concentration (IC50) was found to be 1040 nM in series [1] and 239 ± 72 nM in series [2].
